As a reminder, the inhibition is the change of the read-out against control, counted positive when it falls. For orientation: residual activity means the share of the control activity or signal that is left under treatment.

Structures are written as SMILES.

Inhibition and residual activity data for two compounds are collected here from ChEMBL document CHEMBL5696442, “Discovery of type II inhibitors of TGFβ-activated kinase 1 (TAK1) and mitogen-activated protein kinase kinase kinase kinase 2 (MAP4K2)” (J Med Chem, 2015).

For test [1], the target named is T1, Serine/threonine-protein kinase TBK1 (Homo sapiens) (UniProt Q9UHD2).
T1 sequence (whole entry): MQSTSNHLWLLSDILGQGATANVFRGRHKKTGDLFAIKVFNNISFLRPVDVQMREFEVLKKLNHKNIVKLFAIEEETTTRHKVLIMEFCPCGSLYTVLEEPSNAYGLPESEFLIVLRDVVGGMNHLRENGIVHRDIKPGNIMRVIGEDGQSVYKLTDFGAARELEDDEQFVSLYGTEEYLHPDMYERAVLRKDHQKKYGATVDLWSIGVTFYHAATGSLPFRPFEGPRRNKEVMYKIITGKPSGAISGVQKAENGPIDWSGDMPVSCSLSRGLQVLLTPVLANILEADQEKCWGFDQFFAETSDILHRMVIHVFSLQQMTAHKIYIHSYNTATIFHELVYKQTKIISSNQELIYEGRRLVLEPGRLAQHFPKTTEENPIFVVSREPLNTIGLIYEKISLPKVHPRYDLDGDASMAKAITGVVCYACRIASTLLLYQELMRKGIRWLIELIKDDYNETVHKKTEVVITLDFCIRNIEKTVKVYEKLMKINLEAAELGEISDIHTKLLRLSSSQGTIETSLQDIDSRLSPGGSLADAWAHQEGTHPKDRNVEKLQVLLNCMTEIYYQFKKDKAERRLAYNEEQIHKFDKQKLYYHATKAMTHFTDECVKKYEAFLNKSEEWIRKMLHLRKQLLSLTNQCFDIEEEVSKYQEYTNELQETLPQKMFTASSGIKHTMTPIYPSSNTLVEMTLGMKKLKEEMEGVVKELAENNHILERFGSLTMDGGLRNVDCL
Nature of the test: Inhibition of TBK1 Lys2 labeling site in human A-375 cells at 5 uM by KiNativ Profiling analysis relative to control. It is filed as cell-based.

The target in test [2] is Calcium/calmodulin-dependent protein kinase kinase 2 (Homo sapiens) (UniProt Q96RR4). The test is described as follows: Inhibition of CaMKK2 Lys1 labeling site in human A-375 cells at 0.05 uM by KiNativ Profiling analysis relative to control. It is filed as cell-based.
The target of test [3] is Myosin light chain kinase 2, skeletal/cardiac muscle (Homo sapiens) (UniProt Q9H1R3). The test is described as follows: Inhibition of MYLK2 (unknown origin) at 1 uM by Ambit Kinomescan binding assay relative to control; values are per cent of control.
Test [4] relates to Mast/stem cell growth factor receptor Kit (Homo sapiens), P10721 [D816H]. Nature of the test: Inhibition of KIT D816H mutant (unknown origin) at 1 uM by Ambit Kinomescan binding assay relative to control; values are per cent of control.
Test [5] concerns the target Mitogen-activated protein kinase 7 (Homo sapiens) (UniProt Q13164). The test is described as follows: Inhibition of Erk5 K2 labeling site in human Huh-7 cells at 10 uM by KiNativ Profiling analysis relative to control. It is filed as cell-based.
Test [6] has as its target T2, Interleukin-1 receptor-associated kinase 4 (Homo sapiens) (UniProt Q9NWZ3).
T2 sequence (whole entry): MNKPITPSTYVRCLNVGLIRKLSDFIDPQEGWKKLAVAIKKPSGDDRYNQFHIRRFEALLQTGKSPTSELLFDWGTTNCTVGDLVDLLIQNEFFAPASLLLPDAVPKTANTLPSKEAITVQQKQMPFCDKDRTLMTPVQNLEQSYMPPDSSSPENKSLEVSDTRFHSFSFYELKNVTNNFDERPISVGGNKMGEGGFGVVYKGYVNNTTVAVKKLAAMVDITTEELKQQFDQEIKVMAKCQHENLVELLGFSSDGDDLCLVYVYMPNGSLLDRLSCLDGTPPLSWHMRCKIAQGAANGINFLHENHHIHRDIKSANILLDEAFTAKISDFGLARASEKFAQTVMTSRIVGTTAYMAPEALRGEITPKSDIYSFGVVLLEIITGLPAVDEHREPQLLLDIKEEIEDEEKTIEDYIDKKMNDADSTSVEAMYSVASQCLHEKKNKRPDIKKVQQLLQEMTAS
Nature of the test: Inhibition of IRAK4 K2 labeling site in human Huh-7 cells at 10 uM by KiNativ Profiling analysis relative to control. It is filed as cell-based.

Test [7] addresses T3, Serine/threonine-protein kinase 3 (Homo sapiens) (UniProt Q13188).
T3 sequence (whole entry): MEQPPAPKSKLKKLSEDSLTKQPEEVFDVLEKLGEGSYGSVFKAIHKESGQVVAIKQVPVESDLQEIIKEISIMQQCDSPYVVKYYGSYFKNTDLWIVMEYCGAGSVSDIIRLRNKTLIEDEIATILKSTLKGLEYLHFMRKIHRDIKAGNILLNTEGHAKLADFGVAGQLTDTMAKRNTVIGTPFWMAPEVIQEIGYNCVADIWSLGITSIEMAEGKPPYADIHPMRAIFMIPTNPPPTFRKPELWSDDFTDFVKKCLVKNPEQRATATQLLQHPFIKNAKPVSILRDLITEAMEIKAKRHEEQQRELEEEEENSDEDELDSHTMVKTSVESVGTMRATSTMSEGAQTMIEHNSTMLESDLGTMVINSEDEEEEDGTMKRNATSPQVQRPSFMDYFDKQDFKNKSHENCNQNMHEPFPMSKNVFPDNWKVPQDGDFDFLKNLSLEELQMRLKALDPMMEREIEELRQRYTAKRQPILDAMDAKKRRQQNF
The test is described as follows: Inhibition of MST2 K1 labeling site in human Huh-7 cells at 1 uM by KiNativ Profiling analysis relative to control. It is filed as cell-based.

Calcium/calmodulin-dependent protein kinase kinase 2 (Homo sapiens), sequence (Q96RR4 2-588 limits assumed): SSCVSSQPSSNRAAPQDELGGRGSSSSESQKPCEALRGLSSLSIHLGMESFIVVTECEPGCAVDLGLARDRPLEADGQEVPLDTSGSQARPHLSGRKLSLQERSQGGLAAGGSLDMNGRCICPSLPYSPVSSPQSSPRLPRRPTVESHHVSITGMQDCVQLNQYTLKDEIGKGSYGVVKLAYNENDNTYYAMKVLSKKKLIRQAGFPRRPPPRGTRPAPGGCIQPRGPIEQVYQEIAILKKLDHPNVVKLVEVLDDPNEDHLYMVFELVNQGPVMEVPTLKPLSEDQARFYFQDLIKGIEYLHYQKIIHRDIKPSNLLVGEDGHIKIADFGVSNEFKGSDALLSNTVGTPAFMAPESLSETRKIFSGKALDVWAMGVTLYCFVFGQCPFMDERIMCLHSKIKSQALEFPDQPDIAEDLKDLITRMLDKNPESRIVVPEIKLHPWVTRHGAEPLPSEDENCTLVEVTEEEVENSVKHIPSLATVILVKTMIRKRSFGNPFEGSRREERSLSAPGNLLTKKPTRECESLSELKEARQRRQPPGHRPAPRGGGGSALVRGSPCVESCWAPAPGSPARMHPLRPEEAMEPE
Mast/stem cell growth factor receptor Kit (Homo sapiens), P10721 [D816H], sequence (P10721 whole entry D816H): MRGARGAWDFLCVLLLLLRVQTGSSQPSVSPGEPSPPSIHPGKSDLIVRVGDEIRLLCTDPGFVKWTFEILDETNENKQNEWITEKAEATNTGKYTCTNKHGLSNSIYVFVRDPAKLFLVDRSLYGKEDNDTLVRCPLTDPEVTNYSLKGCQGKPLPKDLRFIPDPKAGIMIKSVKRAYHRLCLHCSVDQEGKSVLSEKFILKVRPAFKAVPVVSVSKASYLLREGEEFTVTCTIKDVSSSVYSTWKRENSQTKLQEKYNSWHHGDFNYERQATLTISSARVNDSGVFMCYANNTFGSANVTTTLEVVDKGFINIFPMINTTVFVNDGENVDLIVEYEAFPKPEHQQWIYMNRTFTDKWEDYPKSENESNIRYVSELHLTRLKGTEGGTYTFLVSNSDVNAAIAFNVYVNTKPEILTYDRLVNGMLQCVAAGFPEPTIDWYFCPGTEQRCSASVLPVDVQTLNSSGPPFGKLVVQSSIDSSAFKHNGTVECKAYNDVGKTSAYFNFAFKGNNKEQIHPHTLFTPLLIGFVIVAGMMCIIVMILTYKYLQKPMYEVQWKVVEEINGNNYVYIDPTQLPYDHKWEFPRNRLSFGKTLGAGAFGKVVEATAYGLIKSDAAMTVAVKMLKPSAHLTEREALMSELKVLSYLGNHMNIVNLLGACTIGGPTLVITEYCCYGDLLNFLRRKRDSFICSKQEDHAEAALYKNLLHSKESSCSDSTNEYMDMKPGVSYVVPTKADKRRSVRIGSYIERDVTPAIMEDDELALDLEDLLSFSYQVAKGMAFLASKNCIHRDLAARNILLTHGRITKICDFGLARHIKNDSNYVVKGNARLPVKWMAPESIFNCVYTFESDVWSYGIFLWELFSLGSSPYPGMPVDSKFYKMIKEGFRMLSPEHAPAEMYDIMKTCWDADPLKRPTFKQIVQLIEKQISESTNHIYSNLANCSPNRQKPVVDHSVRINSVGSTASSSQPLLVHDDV
Mitogen-activated protein kinase 7 (Homo sapiens), sequence (Q13164 2-816 limits assumed): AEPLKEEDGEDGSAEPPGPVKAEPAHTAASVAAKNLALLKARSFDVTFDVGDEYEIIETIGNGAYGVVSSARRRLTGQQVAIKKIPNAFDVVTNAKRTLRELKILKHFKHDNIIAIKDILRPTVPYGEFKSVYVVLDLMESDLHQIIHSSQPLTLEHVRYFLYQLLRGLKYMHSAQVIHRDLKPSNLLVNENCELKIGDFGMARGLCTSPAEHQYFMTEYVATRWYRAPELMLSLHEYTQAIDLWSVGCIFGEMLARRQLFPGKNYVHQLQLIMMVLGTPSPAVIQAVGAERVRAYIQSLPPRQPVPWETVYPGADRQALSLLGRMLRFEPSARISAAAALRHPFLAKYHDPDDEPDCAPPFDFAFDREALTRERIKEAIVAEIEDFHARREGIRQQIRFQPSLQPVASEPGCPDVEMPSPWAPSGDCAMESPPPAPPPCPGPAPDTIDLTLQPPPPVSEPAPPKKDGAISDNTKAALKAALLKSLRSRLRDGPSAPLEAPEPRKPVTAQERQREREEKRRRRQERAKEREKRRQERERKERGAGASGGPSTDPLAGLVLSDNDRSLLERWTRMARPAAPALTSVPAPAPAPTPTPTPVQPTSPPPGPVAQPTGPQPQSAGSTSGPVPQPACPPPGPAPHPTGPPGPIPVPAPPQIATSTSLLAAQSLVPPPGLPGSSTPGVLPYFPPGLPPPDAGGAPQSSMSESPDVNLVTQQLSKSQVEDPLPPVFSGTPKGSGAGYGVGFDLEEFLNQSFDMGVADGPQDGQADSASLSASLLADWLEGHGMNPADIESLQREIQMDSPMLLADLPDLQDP
Myosin light chain kinase 2, skeletal/cardiac muscle (Homo sapiens), sequence (Q9H1R3 whole entry): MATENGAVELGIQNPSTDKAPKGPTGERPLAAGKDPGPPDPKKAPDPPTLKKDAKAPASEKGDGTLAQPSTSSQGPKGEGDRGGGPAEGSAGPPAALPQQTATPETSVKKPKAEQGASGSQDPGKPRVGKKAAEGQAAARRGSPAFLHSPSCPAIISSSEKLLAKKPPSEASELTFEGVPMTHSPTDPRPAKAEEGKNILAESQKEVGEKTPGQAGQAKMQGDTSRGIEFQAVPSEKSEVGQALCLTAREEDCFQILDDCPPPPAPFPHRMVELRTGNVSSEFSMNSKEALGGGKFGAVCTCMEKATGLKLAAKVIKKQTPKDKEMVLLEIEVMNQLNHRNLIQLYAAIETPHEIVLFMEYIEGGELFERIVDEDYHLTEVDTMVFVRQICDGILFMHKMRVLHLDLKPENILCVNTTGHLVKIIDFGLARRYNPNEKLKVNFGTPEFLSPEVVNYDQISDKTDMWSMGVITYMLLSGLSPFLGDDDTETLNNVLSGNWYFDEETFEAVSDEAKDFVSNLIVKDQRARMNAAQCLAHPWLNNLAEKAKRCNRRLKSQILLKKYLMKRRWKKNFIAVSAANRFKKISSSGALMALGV

Consider `CCN1CCN(Cc2ccc(NC(=O)c3ccc(C)c(/C=C/c4cnc5[nH]ccc5c4OC)c3)cc2C(F)(F)F)CC1`, for which the values for the inhibition in test [1] and in test [2] were 37.6% and 3.5%, respectively. Further, the values for the residual activity in test [3] and in test [4] were 4.6% and 25%, respectively.
Consider `CCN1CCN(Cc2ccc(NC(=O)c3ccc(C)c(Oc4ccnc5[nH]ccc45)c3)cc2C(F)(F)F)CC1`, for which the inhibition in test [5] was 12.4%; in test [6], 17.8%; in test [7] it was 16.2%.
